Data from US11000601B2, “Conjugated biological molecules, pharmaceutical compositions and methods” (OBI Pharma, Inc., priority 2016, dated 2021).
Values joined by “and” are separate entries in the source; they are usually repeats but may differ in a detail not shown here. Identical values can stand only once. Square brackets hold non-standard residues; d marks the D form. Peptide text beside a SMILES is read from it. * marks the point of attachment. Dolaproine = CO[C@@H]([C@@H]1CCCN1)[C@@H](C)C(=O)O; Dil = CC[C@H](C)[C@H](NC)[C@@H](CC(=O)O)OC; X1 = C[C@@H](N*)[C@@H](O)c1ccccc1; NMeV = CN[C@H](C(=O)O)C(C)C

Assay: Body weight, mortality and signs of overt toxicity in NCI-N87 implanted female nu/nu mice
Format: in vivo, mouse
Protocol: In a xenograft tumor model of human gastric carcinoma, viable NCI-N87 (ATCC CRL-5822) cells were subcutaneously (SC) implanted (2.5×10^6 cells/mL with matrigel (1:1) at 0.2 mL/mouse) into the right flank of female nu/nu mice. Tumor implanted mice were divided into seven treatment groups, each group containing eight animals, and one group containing five animals, and dose administrations were initiated one day after cell implantation (denoted as Day 1).
Female nude (nu/nu) mice aged 5-6 weeks obtained from BioLasco Taiwan (under Charles River Laboratories Licensee) were used. The animals were housed in individually ventilated cages (IVC, 36 Mini Isolator system). The allocation for 3 animals was 27×20×14 in cm. All animals were maintained in a hygienic environment under controlled temperature (20-24° C.) and humidity (30%-70%) with 12-hour light/dark cycle. Free access to standard lab diet [MFG (Oriental Yeast Co., Ltd., Japan)] and autoclaved tap water in bottles were granted. All aspects of this work including housing, experimentation, and animal disposal were performed in general accordance with the “Guide for the Care and Use of Laboratory Animals: Eighth Edition” (National Academies Press, Washington, D.C., 2011) in our AAALAC-accredited laboratory animal facility. In addition, the animal care and use protocol was reviewed and approved by the IACUC at Eurofins Panlabs Taiwan, Ltd.
The tumor volumes, body weights, mortality, and signs of overt toxicity were monitored and recorded twice weekly for 100 days. Tumor growth inhibition was calculated as T/C (treatment/control)×100%. A T/C value≤42% compared to that of the vehicle control group was considered significant anti-tumor activity. Two-way ANOVA followed by Bonferroni test was used to ascertain the statistically significant significance of groups compared to respective vehicle control (*p<0.05).

[1] = 0.191 mg/kg × 4 IP once weekly, group mean
[2] = 0.191 mg/kg × 4 IP once weekly, individual mouse

SMILES: CC[C@H](C)[C@@H]([C@@H](CC(=O)N1CCC[C@H]1[C@H](OC)[C@@H](C)C(=O)N[C@H](C)[C@@H](O)c1ccccc1)OC)N(C)C(=O)[C@@H](NC(=O)[C@@H](NC)C(C)C)C(C)C [MMAE, monomethyl auristatin E] (H-[NMeV]V[Dil][Dolaproine]-X1)
- Mortality (animal entered as died in tumor volume table) (0.191 mg/kg × 4 IP (Once weekly), mouse No. 6, Day 57-Day 100): died
- Body Weight Day 1, Mean [1]: 21.9 g
- Body Weight Day 4, Mean [1]: 20.4 g
- Body Weight Day 8, Mean [1]: 22.1 g
- Body Weight Day 11, Mean [1]: 22.6 g
- Body Weight Day 15, Mean [1]: 23.4 g
- Body Weight Day 18, Mean [1]: 23.6 g
- Body Weight Day 25, Mean [1]: 24.0 g
- Body Weight Day 32, Mean [1]: 25.1 g
- Body Weight Day 36, Mean [1]: 25.1 g
- Body Weight Day 50, Mean [1]: 26.0 g
- Body Weight Day 1 [2]: 20 g (2×) and 22 g (3×) and 24 g (2×) and 21 g
- Body Weight Day 4 [2]: 18 g and 19 g (2×) and 22 g and 21 g and 20 g and died and 24 g
- Body Weight Day 8 [2]: 22 g (3×) and 23 g (2×) and died and 24 g and 19 g
- Body Weight Day 11 [2]: 22 g (2×) and 23 g (2×) and 25 g and 24 g and died and 19 g
- Body Weight Day 15 [2]: 24 g (2×) and 23 g (3×) and 25 g and died and 22 g
- Body Weight Day 18 [2]: 24 g (3×) and 22 g (2×) and 23 g and 26 g and died
- Body Weight Day 22 [2]: 24 g (3×) and 22 g and 25 g (3×) and died
- Body Weight Day 25 [2]: 24 g (4×) and 22 g and 25 g (2×) and died
- Body Weight Day 29 [2]: 25 g (3×) and 24 g and 26 g (3×) and died
- Body Weight Day 32 [2]: 25 g (2×) and 23 g and 24 g and 27 g and 26 g (2×) and died
- Body Weight Day 36 [2]: 26 g (2×) and 24 g and 25 g (4×) and died
- Body Weight Day 39 [2]: 26 g (6×) and 24 g and died
- Body Weight Day 43 [2]: 26 g (6×) and 24 g and died
- Body Weight Day 46 [2]: 26 g (3×) and 25 g and 27 g (3×) and died
- Body Weight Day 50 [2]: 26 g (4×) and 24 g and 27 g (2×) and died
- Body Weight Day 53 [2]: 27 g (4×) and 24 g and died and 26 g and 28 g
- Mortality (animal recorded as died in tumor volume table) (animal No. 6, Day 4-Day 25, 0.191 mg/kg × 4 IP once weekly): died
